Measured values published in patent EP0372603A2, “Antibacterial oral composition” (Colgate-Palmolive Company, priority 1988, dated 1990).

Key:
[1] = test system: Actinomyces viscosus cells; assay: Antibacterial effect: full strength rinses exposed to cells for 60 seconds, CFU count; assay type: cell-based
Experimental: The antibacterial effect of chlorhexidine in the presence of aminoguanidine is determined by exposing the following full strength rinses to Actinomyces viscosus cells for 60 seconds.

[2] = In vitro stain retention on hydroxyapatite (bovine serum albumin/acetaldehyde browning model); conditions: 0.12, 0.25 and 1.0% of aminoguanidine gluconate with 0.12% CHX
Experimental: The following in vitro method correlates with and simulates the reaction whereby hydroxyapatite tooth mineral material is stained brown:
2.0 g hydroxyapatite (HAP), 10 ml of 25% Bovine Serum Albumin in 0.1M phosphate buffer (pH 7.0), 2.5 ml of 0.1M phosphate buffer containing mono-basic and di-basic sodium orthophosphate (pH 7), 25.0 ml of a test sample and 12.5 ml of 30% buffered acetaldehyde (pH 7) are mixed for 24 hrs. at 37 °C. The HAP is filtered and dried at 37 °C. The color retained on the HAP powder is qualified with a Gardner Color Difference Meter.

[3] = test system: in vitro plaque which is formed by Actinomyces viscosus and strep mutans on extracted human teeth; assay: Antiplaque effect on in vitro plaque on extracted human teeth (visual score and erythrosine dye extraction); assay type: cell-based
Experimental: The antiplaque effect of chlorhexidine in the presence of aminoguanidine is determined by rinsing in vitro plaque which is formed by Actinomyces viscosus and strep mutans on extracted human teeth for 30 seconds once per day for three days with the full strength rinses below. The plaque growth is induced on teeth by daily transferring the teeth to an inoculated fresh medium (tryptocase soy broth). The amount of plaque is scored visually as well as after disclosing with erythrosine dye. The dye is then extracted with ethanol. The amount of the dye adsorbed is directly proportional to the amount of the plaque on teeth. The dye concentration is measured spectrophotometrically at wavelength 533nm.

[4] = Gingivitis/plaque/stain evaluation in monkeys sprayed with rinse once daily for 6 weeks; assay type: in vivo, squirrel monkeys; design: key to Final Gingival Index: 0 = clinically normal gingiva to 4 = obvious redness with bleeding; Initial Stain Index / Final Stain Index: scale not given here; conditions: for Final Gingival Index: once daily spray 30 seconds; for Initial Gingival Index: baseline before treatment, scale 0-4; for Initial Plaque Index: modified Quigley-Hein index
Experimental: Adult squirrel monkeys are prepared for a gingivitis/plaque/stain evaluation including thorough prophylaxis. 36 surfaces (maxillary and mandibular; mesial, buccal and distal) are initially evaluated for plaque by a modified Quigley-Hein index and gingival inflation by the following scale: 0 - clinically normal; pink, form, knife-like gingival margin, triangular interdental papilla; 1 - change in the form of gingiva; gingival margin may be slightlyenlarged, no longer knife-like and firm, no color change; 2 - slight color change of marginal gingiva of interdental papilla, discrete areas of redness at most cornal surfaces of the free gingiva; 3- obvious color change in marginal gingiva or interdental papilla, no bleeding on probing; 4 - obvious color change; redness obvious; in addition, bleeding on probing or spontaneous bleeding.
The squirrel monkeys are then divided into 3 groups of four and each is treated in a double blind manner once daily for 6 weeks. All dentitions are sprayed for 30 seconds from polyethylene bottles containing rinse solution.
Initial and 6 week evaluations for three studies for plaque formation and gingival inflamation and 6 week evaluations for stain (indicate general protocol) follow, with stain TABLE 4

SMILES | antibacterial effect (in words) ([1]; 0.25% Aminoguanidine alone) | effect on antibacterial activity of chlorhexidine (in words) ([1]; 0.25% Aminoguanidine with CHX) | chlorhexidine induced stain (in words) [2] | antiplaque activity (in words) ([3]; 0.25% Aminoguanidine alone) | effect on antiplaque activity of chlorhexidine (in words) ([3]; 0.25% Aminoguanidine with CHX) | Final Plaque Index ([4]; Study A, after 6 weeks) | Final Gingival Index ([4]; Study A, after 6 weeks) | Initial Gingival Index ([4]; Study A) | Initial Plaque Index ([4]; Study A, baseline) | Final Plaque Index ([4]; Study B, after 6 weeks) | Final Stain Index ([4]; Study B, after 6 weeks) | Final Gingival Index ([4]; Study B, after 6 weeks) | Initial Stain Index ([4]; Study B, baseline) | Initial Gingival Index ([4]; Study B) | Initial Plaque Index ([4]; Study B, baseline) | Final Plaque Index ([4]; Study C, after 6 weeks) | Final Gingival Index ([4]; Study C, after 6 weeks) | Initial Gingival Index ([4]; Study C) | Initial Plaque Index ([4]; Study C, baseline)
N=C(N)NN [Aminoguanidine, Hydrazine Carboximidamide (aminoguanidine)] | no antibacterial effect | does not compromise antibacterial activity of chlorhexidine | reduces the chlorhexidine induced stain at least to about the level of the placebo | no antiplaque activity | does not compromise the antiplaque activity of chlorhexidine | – | – | – | – | – | – | – | – | – | – | – | – | – | –
[H]/N=C(\N/C(=N/[H])NCCCCCCNC(=N)NC(=N)Nc1ccc(Cl)cc1)Nc1ccc(Cl)cc1 [CHX, chlorhexidine gluconate] | – | – | – | – | – | 1.24 | 0.49 | 0.43 | 0.55 | 0.47 | 0.62 | 0.47 | 0.01 | 0.54 | 0.15 | 0.83 | 0.63 | 0.56 | 0.53
